Measured values published in patent publication US20210177828A1, “TAM FAMILY KINASE /AND CSF1R KINASE INHIBITOR AND USE THEREOF” (Nanjing Transthera Biosciences Co., Ltd., priority 2018, published 2021).
pIC50: −log10 of the molar value.

Experiments:
H1299 cell pMer = biological target: T1, H1299 cell pMer (Homo sapiens, UniProt Q12866); test: Inhibitory activity on cell pMer, H1299 cells, Human Mer Mab stimulation, Western Blot; format: cell-based; details: Human Mer Mab 200 ng/mL
T1 construct: endogenous in cells; host or cells: H1299
T1 sequence (Q12866 21-999): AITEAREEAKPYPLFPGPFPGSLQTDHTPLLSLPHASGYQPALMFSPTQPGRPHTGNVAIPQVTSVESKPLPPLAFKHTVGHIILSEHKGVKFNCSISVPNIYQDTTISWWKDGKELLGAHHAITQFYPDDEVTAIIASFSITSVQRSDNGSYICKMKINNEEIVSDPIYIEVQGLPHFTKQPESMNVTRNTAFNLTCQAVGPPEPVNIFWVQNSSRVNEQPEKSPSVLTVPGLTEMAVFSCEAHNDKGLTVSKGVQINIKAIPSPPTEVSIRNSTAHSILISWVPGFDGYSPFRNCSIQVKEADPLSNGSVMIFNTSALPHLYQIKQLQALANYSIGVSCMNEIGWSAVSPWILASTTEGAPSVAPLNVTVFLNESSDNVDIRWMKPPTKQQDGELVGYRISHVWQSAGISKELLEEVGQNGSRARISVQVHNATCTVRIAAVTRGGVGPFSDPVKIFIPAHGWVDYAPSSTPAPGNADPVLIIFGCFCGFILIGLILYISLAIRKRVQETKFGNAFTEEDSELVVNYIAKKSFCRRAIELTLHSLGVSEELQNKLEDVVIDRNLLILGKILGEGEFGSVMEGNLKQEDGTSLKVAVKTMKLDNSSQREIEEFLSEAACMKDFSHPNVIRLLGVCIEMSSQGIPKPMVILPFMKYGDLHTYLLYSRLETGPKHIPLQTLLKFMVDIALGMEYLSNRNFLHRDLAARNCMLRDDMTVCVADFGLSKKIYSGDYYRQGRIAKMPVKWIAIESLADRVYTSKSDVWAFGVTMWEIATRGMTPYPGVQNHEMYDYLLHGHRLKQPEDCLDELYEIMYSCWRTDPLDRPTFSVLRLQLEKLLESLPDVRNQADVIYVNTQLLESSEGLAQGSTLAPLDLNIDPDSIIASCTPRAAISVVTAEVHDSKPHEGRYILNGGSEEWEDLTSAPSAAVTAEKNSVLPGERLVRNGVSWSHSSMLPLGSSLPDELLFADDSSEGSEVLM
Description: H1299 is anon-small cell lung cancer cell.
H1299 cells were inoculated to a 6-well plate (containing 10% FBS 1640 medium, 5×10^5 cells per well) and adherently cultivated at 37° C., and 5% CO2 for 18 hrs. The cells were starved overnight, and then compound solutions with different concentrations were added. The compounds had final concentrations of 0.35, 1.1, 3.3 and 10 nM. […] There was a medium containing 1‰DMSO in the negative control well. The cells were incubated at 37° C., and 5% CO2 for 60 min, and then Human Mer Mab (R&D, final concentration: 200 ng/mL) was added to each well. The cells were further incubated for 60 min, and then the total protein of the cells was extracted for Western Blot experiment. Gray analysis was performed on the results with Image J software, and IC50 values were calculated with GraphPad 5.0 software. The inhibitory activities of the compounds on cell pMer were detected.

Tyro-3 (h) = biological target: T2, Tyro-3 (h) (Homo sapiens, UniProt Q06418); test: Enzymatic activity assay, Tyro-3 (h), [γ-33P]-ATP filter assay; format: biochemical; details: 10 μM ATP, 40 min room temperature; read-out: Inhibitory activity IC50 Tyro-3(h)
T2 sequence (Q06418 41-890): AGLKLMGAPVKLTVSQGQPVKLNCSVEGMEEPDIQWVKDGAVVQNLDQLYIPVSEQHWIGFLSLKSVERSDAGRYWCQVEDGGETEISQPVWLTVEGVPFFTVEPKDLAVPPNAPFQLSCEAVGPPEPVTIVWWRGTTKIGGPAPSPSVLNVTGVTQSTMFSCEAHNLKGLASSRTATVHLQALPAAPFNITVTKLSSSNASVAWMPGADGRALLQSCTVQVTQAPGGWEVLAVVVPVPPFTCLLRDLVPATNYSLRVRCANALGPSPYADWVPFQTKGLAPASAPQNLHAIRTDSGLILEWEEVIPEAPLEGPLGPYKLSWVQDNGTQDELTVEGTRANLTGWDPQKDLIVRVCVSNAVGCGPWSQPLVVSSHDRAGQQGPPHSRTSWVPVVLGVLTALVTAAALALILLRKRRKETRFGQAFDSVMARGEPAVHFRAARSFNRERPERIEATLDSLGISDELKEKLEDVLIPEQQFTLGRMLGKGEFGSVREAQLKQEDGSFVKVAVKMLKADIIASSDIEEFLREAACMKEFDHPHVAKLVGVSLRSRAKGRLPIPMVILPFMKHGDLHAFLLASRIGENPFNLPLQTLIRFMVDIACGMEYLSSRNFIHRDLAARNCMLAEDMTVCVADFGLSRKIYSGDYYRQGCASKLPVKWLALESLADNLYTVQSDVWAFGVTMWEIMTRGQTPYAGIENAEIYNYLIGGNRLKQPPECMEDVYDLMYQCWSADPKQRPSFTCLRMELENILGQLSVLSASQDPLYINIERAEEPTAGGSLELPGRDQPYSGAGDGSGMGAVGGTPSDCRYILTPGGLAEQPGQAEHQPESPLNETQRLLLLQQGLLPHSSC
Description: Compounds were each dissolved in 100% DMSO to prepare stock solutions with a maximum concentration of 500 μM.
Compound working solutions (50×) were prepared by diluting a compound stock solution to a final concentration of 500, 150, 50, 15, 5, 1.5, 0.5, 0.15 and 0.05 μM.
An enzyme solution with a final concentration of 38 nM was prepared by dissolving Tyro3 (h) enzyme in a mixture of 8 mM MOPS (pH 7.0), 0.2 mM EDTA, 1 mM MnCl2 and 250 μM KVEKIGEGTYGVVYK. A Mg/ATP mixture of 10 mM magnesium acetate and 10 μM [γ-^33P]-ATP was used to activate the enzymatic reaction.
A compound working solution was added to a 384-well plate, with final concentrations of 10,000, 3,000, 1,000, 300, 100, 30, 10, 3 and 1 nM, and then different enzymatic reaction solutions prepared according to the above conditions were added. The reaction solutions were incubated at room temperature for 40 min, and then 0.5% phosphoric acid solutions were added to terminate the reaction. 10 μL of the reaction solution was added dropwise to P30 filter paper, washed 4 times with a 0.425% phosphoric acid solution and once with methanol, and then placed in a scintillation counter for detection. Gray analysis was performed on the results with Image J software, and IC50 values were calculated with GraphPad 5.0 software.

| SMILES | pIC50 (H1299 cell pMer) | pIC50 (Tyro-3 (h)) |
| --- | --- | --- |
| COc1cc2nccc(Oc3ccc(NC(=O)c4cn(CC5CCOCC5)cc(-c5ccc(C)cc5)c4=O)nc3)c2cc1OC [Compound 1, N-(5-((6,7-dimethoxyquinolin-4-yl)oxy)pyridin-2-yl)-4-oxo-1-((tetrahydro-2H-pyran-4-yl)methyl)-5-(p-tolyl)-1,4-dihydropyridin-3-carboxamide] | 8.48 to 8.96 | 7.43 |
| COc1cc2nccc(Oc3ccc(NC(=O)c4nn(CC5CCOCC5)cc(-c5ccc(C)cc5)c4=O)nc3)c2cc1OC [Compound 2, N-(5-((6,7-dimethoxyquinolin-4-yl)oxy)pyridin-2-yl)-4-oxo-1-((tetrahydro-2H-pyran-4-yl)methyl)-5-(p-tolyl)-1,4-dihydropyridazin-3-carboxamide] | 8.96 | 7.89 |
| COc1cc2nccc(Oc3cnc(NC(=O)c4cn(CC5CCOCC5)cc(-c5ccc(C)cc5)c4=O)nc3)c2cc1OC [Compound 4, N-(5-((6,7-dimethoxyquinolin-4-yl)oxy)pyrimidin-2-yl)-4-oxo-1-((tetrahydro-2H-pyran-4-yl)methyl)-5-(p-tolyl)-1,4-dihydropyridin-3-carboxamide] | 8.96 | 6.75 |
| COc1cc2nccc(Oc3ccc(NC(=O)c4cn(CC5CCS(=O)(=O)CC5)cc(-c5ccc(C)cc5)c4=O)nc3)c2cc1OC [Compound 7, N-(5-((6,7-dimethoxyquinolin-4-yl)oxy)pyridin-2-yl)-1-((1,1-dioxotetrahydro-2H-thiopyran-4-yl)methyl)-4-oxo-5-(p-tolyl)-1,4-dihydropyridin-3-carboxamide] |  | 6.72 |
| COc1cc2nccc(Oc3ccc(NC(=O)c4cn(CC5CC[S+]([O-])CC5)cc(-c5ccc(C)cc5)c4=O)nc3)c2cc1OC (stereo not shown) [Compound 8, N-(5-((6,7-dimethoxyquinolin-4-yl)oxy)pyridin-2-yl)-1-((1-oxotetrahydro-2H-thiopyran-4-yl)methyl)-4-oxo-5-(p-tolyl)-1,4-dihydropyridin-3-carboxamide] |  | 6.93 |
| COc1cc2nccc(Oc3ccc(NC(=O)c4cn(CC5CCSCC5)cc(-c5ccc(C)cc5)c4=O)nc3)c2cc1OC [Compound 9, N-(5-((6,7-dimethoxyquinolin-4-yl)oxy)pyridin-2-yl)-4-oxo-1-((tetrahydro-2H-thiopyran-4-yl)methyl)-5-(p-tolyl)-1,4-dihydropyridin-3-carboxamide] | 8.48 to 8.96 | 7.55 |
| COc1cc2nccc(Oc3ccc(NC(=O)c4cc(-c5ccc(C)cc5)cn(CC5CCOCC5)c4=O)nc3)c2cc1OC [Compound 13, N-(5-((6,7-dimethoxyquinolin-4-yl)oxy)pyridin 2yl)-2-oxo-1-((tetrahydro-2H-pyran-4-yl)methyl)-5-(p-tolyl)-1,2-dihydropyridin-3-carboxamide] |  | 7.03 |
| COc1cc2nccc(Oc3ccc(NC(=O)c4cn(CC5CCOCC5)cc(-c5ccc(C)cc5)c4=O)nn3)c2cc1OC [Compound 24, N-(6-((6,7-dimethoxyquinolin-4-yl)oxy)pyridazin-3-yl)-4-oxo-1-((tetrahydro-2H-pyran-4-yl)methyl)-5-(p-tolyl)-1,4-dihydropyridin-3-carboxamide] |  | 6.67 |
| COc1cc2nccc(Oc3ccc(NC(=O)c4cn(CC5CCOCC5)c5ccccc5c4=O)nc3)c2cc1OC [Compound 25, N-(5-((6,7-dimethoxyquinolin-4-yl)oxy)pyridin-2-yl)-4-oxo-1-((tetrahydro-2H-pyran-4-yl)methyl)-1,4-dihydroquinolin-3-carboxamide] |  | 6.69 |
| COc1cc2nccc(Oc3ccc(NC(=O)c4cc(CC5CCOCC5)cn(-c5ccc(C)cc5)c4=O)nc3)c2cc1OC [Compound 26, N-(5-((6,7-dimethoxyquinolin-4-yl)oxy)pyridin-2-yl)-oxo-5-((tetrahydro-2H-pyran-4-yl)methyl)-1-(p-tolyl)-1,2-dihydropyridin-3-carboxamide] |  | 7.32 |
| COc1cc2nccc(Oc3ccc(NC(=O)c4cn(C5CCOCC5)cc(-c5ccc(F)cc5)c4=O)nc3)c2cc1OC [Compound 27, N-(5-((6,7-dimethoxyquinolin-4-yl)oxy)pyridin-2-yl)-5-(4-fluorophenyl)-4-oxo-1-(tetrahydro-2H-pyran-4-yl)-1,4-dihydropyridin-3-carboxamide] | > 8.96 |  |
| Cc1ccc(-c2cn(C3CCOCC3)nc(C(=O)Nc3ccc(Oc4ccnc5cc6c(cc45)OCO6)cn3)c2=O)cc1 [Compound 29, N-(5-([1,3]dioxolo[4,5-g]quinolin-8-yloxy)pyridin-2-yl)-4-oxo-1-(tetrahydro-2H-pyran-4-yl)-5-(p-tolyl)-1,4-dihydropyridazin-3-carboxamide] |  | 6.49 |
| Cc1ccc(-c2cn(C3CCOCC3)nc(C(=O)Nc3ccc(Oc4ccnc5cc6c(cc45)OCCO6)cn3)c2=O)cc1 [Compound 30, N-(5-((2,3-dihydro-[1,4]dioxino[2,3-g]quinolin-9-yl)oxy)pyridin-2-yl)-4-oxo-1-(tetrahydro-2H-pyran-4-yl)-5-(p-tolyl)-1,4-dihydropyridazin-3-carboxamide] |  | 6.50 |
| COc1cc2nccc(Oc3cnc(NC(=O)c4nn(C5CCOCC5)cc(-c5ccc(F)cc5)c4=O)nc3)c2cc1OC [Compound 33, N-(5-((6,7-dimethoxyquinolin-4-yl)oxy)pyrimidin-2-yl)-5-(4-fluorophenyl)-4-oxo-1-(tetrahydro-2H-pyran-4-yl)-1,4-dihydropyridazin-3-carboxamide] |  | 7.64 |
| COc1cc2nccc(Oc3ccc(NC(=O)c4nn(C5CCOCC5)cc(-c5ccc(F)cc5)c4=O)nc3)c2cc1OC [Compound 34, N-(5-((6,7-dimethoxyquinolin-4-yl)oxy)pyridin-2-yl)-5-(4-fluorophenyl)-4-oxo-1-(tetrahydro-2H-pyran-4-yl)-1,4-dihydropyridazin-3-carboxamide] |  | 7.72 |
